The results in this text go back to US11426356B2, “Crosslinked particles” (Pendant Biosciences, Inc., priority 2015, dated 2022).

Holding throughout (format): physicochemical
Data set [1] can be described thus: Preliminary drug release from crosslinked macroparticles. On the procedure:
(§1) Unless otherwise indicated, quantitation of drug products was carried out using HPLC methods. Calibration curves for drugs used herein (e.g., triamcinolone, triamcinolone hexacetonide, triamcinolone acetonide, paclitaxel, and curcumin) were prepared by injecting known concentrations of the drugs and measuring the area under the curve at each concentration. Analyses were carried out using an Agilent Zorbax Eclipse XDB-C18 column (150×4.6 mm i.d.) with a 12.5×4.6 mm guard column. The parameters for each drug are given below in Table 1
The macroparticles were suspended in PBS (0.1% Tween) and the release rate was observed. The macroparticles released 5% of the paclitaxel after 3 hours at room temperature and about 5% after 24 hours at room temperature.

Data set [2] in a line: Drug loading of crosslinked PVL-co-PAVL macroparticles (cylinders). On the procedure: as §1
A crosslinked macroparticle weighing about 15 mg comprising PVL-co-PAVL (MW=14760 g/mol, 13% AVL, 87% VL) was loaded with 2.5 mg paclitaxel by overnight soaking in THF followed by the slow addition of 50 mL PBS containing 0.1% Tween.

A short description of data set [3]: Curcumin loading, release and post-release extraction of microparticle flakes. Here is the method:
as §1
Crosslinked microparticles (15 mg) were loaded with 2.5 mg curcumin by overnight soaking in THF followed by the slow addition of 50 mL PBS containing 0.1% Tween. The microparticles were rinsed with THF to remove free curcumin and dried overnight.
It was observed that microparticles thus produced formed “flakes” that could not be re-suspended in THF or PBS buffer solution upon drying. […] The flakes could not be re-suspended in PBS buffer.
The release profile of curcumin of microparticle flakes produced by the method described above. The release profile is further quantified in Table 6, below.

A short description of data set [4]: Loading of particles with triamcinolone hexacetonide (swelling in THF, slow addition of water). As to conditions: included surface-bound drug or free drug in solution. On the procedure:
In some embodiments, the loading procedure can affect the amount of drug that is absorbed into a particle of the present disclosure. For example, as set forth in Examples 7 and 8, 25 mg of 75:25 (mPEG-PVL-PAVL:PVL-PAVL) particles were swollen overnight with 2 mg/mL triamcinolone hexacetonide in THF. However, without wishing to be bound by theory, slow addition of greater volumes of water can facilitate greater uptake of triamcinolone hexacetonide by allowing the drug to preferentially partition into the particles. As set forth in Examples 7 and 8, slow addition of water enabled 67% loading efficiency. Additional parameters, in addition to the rate of water addition, that can affect the loading of a drug into a particle of the present disclosure are, for instance, the solvent in which the drug is dissolved, the time that the particles soak with the drug, and the volume of water used. Other parameters include the pH and the ionic strength of the solvent. For example, protic organic solvents such as methanol or ethanol can be used in place of water to facilitate loading of drug into a particle of the present disclosure.
Unless otherwise indicated, quantitation of drug products was carried out using HPLC methods. […]

The nature of data set [5]: Release of triamcinolone hexacetonide from loaded particles in dissolution media. On the procedure:
as §1
25 mg of 75:25 (mPEG-PVL-PAVL:PVL-PAVL) particles were swollen overnight with 2 mg/mL triamcinolone hexacetonide in THF. 10 mL water including 0.1% tween was then added dropwise. The resulting mixture was centrifuged, the supernatant was collected, and the addition of 10 mL water including 0.1% tween was added dropwise again (2×; 30 mL total).
Without wishing to be bound by theory, this may be due to the fact that the triamcinolone hexacetonide crystallized on the surface of the particles. Without wishing to be bound by theory, this may be due to the relatively fast addition of water and the limited solubility of triamcinolone hexacetonide, which caused it to crystallize.
The loading efficiency, which included surface-bound drug or free drug in solution, was 67%. Upon suspending the particles in dissolution media, 20% of the triamcinolone hexacetonide was released within an hour, and 30% was released within 2 hours.

Setting [6] is: about 15 mg PVL-co-PAVL macroparticle, PBS (0.1% Tween), room temperature.
Where [7] appears, read: about 15 mg PVL-co-PAVL macroparticle loaded with 2.5 mg paclitaxel.
[8] abbreviates: triamcinolone hexacetonide, first cylinder (labelled with a circle).
The mark [9] stands for this setting: particles of Example 8 suspended in dissolution media.

Structures are written as SMILES.

On to `COc1cc(/C=C/C(=O)CC(=O)/C=C/c2ccc(O)c(OC)c2)ccc1O` [curcumin], for which the “curcumin released after about eight days” value in data set [1] (curcumin-loaded cylinder, FIG. 21) is “almost all”. This compound gave a capacity in data set [2] (curcumin-loaded cylinder) of 9.64%. Moreover, the “amount of drug in the cylinder” value in data set [2] (curcumin-loaded cylinder dissolved in THF) was 1.176 mg. Besides, the “curcumin recovered in post-release extraction of the flakes” value in data set [3] (after 48 hours release) is 57%. The “curcumin released after 48 hours” value in data set [3] (from microparticle flakes) turned out to be 51%.
As for `CC(=O)O[C@H]1C(=O)[C@@]2(C)[C@H]([C@H](OC(=O)c3ccccc3)[C@]3(O)C[C@H](OC(=O)[C@H](O)[C@@H](NC(=O)c4ccccc4)c4ccccc4)C(C)=C1C3(C)C)[C@]1(OC(C)=O)CO[C@@H]1C[C@@H]2O` [paclitaxel], in data set [1] (setting [6]), the “paclitaxel released after 3 hours” value was determined as 5% and the “paclitaxel released after 24 hours” value is listed as “about 5%”. For the same compound, in data set [2] (setting [7]), the loading capacity turned out to be 1.7 % w/w and the loading efficiency came out at 30%.
Turning to `CC(C)(C)CC(=O)OCC(=O)[C@@]12OC(C)(C)O[C@@H]1C[C@H]1[C@@H]3CCC4=CC(=O)C=C[C@]4(C)[C@@]3(F)[C@@H](O)C[C@@]12C` [triamcinolone hexacetonide], the “total drug released after about 6 days” value in data set [1] (both triamcinolone hexacetonide cylinders, FIG. 23) is on record as “about 60%”. In data set [4], this compound registered a loading efficiency of 67%. Moreover, in data set [2] (setting [8]), the “amount of drug in the first cylinder” value was 1.118 mg and the “capacity of the first cylinder” value worked out at 9.12%. Besides, the “capacity of the second cylinder” value in data set [2] (triamcinolone hexacetonide, second cylinder (labelled with an X)) was 11.651%. The “amount of drug in the second cylinder” value in data set [2] (triamcinolone hexacetonide, second cylinder (labelled with an X), in mg) came out at 0.901. Further, the release profile entry in data set [5] (Example 7: 75:25 (mPEG-PVL-PAVL:PVL-PAVL) particles, relatively fast addition of water, surface-crystallized drug) was “relatively rapid release”. Further, in data set [5] (setting [9]), the “triamcinolone hexacetonide released within 2 hours” value is on record as 30% and the “triamcinolone hexacetonide released within an hour” value worked out at 20%.
